US20100267561A1, “HERBICIDAL PYRIDAZINONE DERIVATIVES” (priority 2007, published 2010)

Assays:
Test in all cases: Test A pre-/postemergence plant response
Assay type in all cases: in vivo
[1] = tested on: barnyardgrass (Echinochloa crus-galli)
Method in brief: (§1)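 Seeds in loam soil/sand blend treated preemergence by directed soil spray, with simultaneous postemergence spray on 2–10 cm plants at one- to two-leaf stage; compounds in non-phytotoxic solvent with surfactant. Injury visually rated versus untreated controls after about 10 days in greenhouse, 0 (no effect) to 100 (complete control).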

[2] = tested on: corn (Zea mays)
Method in brief: as §1

[3] = tested on: giant foxtail (Setaria faberi)
Method in brief: as §1

[4] = tested on: large crabgrass (Digitaria sanguinalis)
Method in brief: as §1

[5] = tested on: morningglory (Ipomoea coccinea)
Method in brief: as §1

[6] = tested on: pigweed (Amaranthus retroflexus)
Method in brief: as §1

[7] = tested on: velvetleaf (Abutilon theophrasti)
Method in brief: as §1

[8] = tested on: wheat (Triticum aestivum)
Method in brief: as §1

[9] = Postemergence, 125 g ai/ha, 0 to 100 scale, 0 no effect, 100 complete control
[10] = Postemergence, 500 g ai/ha, 0 to 100 scale, 0 no effect, 100 complete control
[11] = Preemergence, 125 g ai/ha, 0 to 100 scale (0 no effect, 100 complete control)
[12] = Preemergence, 500 g ai/ha, 0 to 100 scale (0 no effect, 100 complete control)
[13] = Postemergence, 31 g ai/ha, 0 to 100 scale, 0 no effect, 100 complete control
[14] = Preemergence, 31 g ai/ha, 0 to 100 scale, 0 is no effect, 100 is complete control

Compound	Plant response rating, Barnyardgrass [1, 9]	Plant response rating, Barnyardgrass [1, 11]	Plant response rating, Corn [2, 9]	Plant response rating, Corn [2, 11]	Plant response rating, Foxtail, Giant [3, 9]	Plant response rating, Foxtail, Giant [3, 11]	Plant response rating, Crabgrass, Large [4, 9]	Plant response rating, Crabgrass, Large [4, 11]	Plant response rating, Morningglory [5, 9]	Plant response rating, Morningglory [5, 11]	Plant response rating, Pigweed [6, 9]	Plant response rating, Pigweed [6, 11]	Plant response rating, Velvetleaf [7, 9]	Plant response rating, Velvetleaf [7, 11]	Plant response rating, Wheat [8, 9]	Plant response rating, Wheat [8, 11]	Plant response rating, Barnyardgrass [1, 13]	Plant response rating, Barnyardgrass [1, 14]	Plant response rating, Corn [2, 13]	Plant response rating, Corn [2, 14]	further results
Cc1cc(-c2ccc(C(F)(F)F)cc2)nn1-c1c(O)c(C(C)C)nn(C)c1=O [Compound 27]	20	80	50	20	50	80	60	80	0	0	0	0	0	0	50	40					Plant response rating, Barnyardgrass [1, 10]: 90; Plant response rating, Barnyardgrass [1, 12]: 100; Plant response rating, Corn [2, 10]: 80; Plant response rating, Corn [2, 12]: 80; Plant response rating, Foxtail, Giant [3, 10]: 90; Plant response rating, Foxtail, Giant [3, 12]: 90; Plant response rating, Crabgrass, Large [4, 10]: 80; Plant response rating, Crabgrass, Large [4, 12]: 100; Plant response rating, Morningglory [5, 10]: 0; Plant response rating, Morningglory [5, 12]: 0; Plant response rating, Pigweed [6, 10]: 0; Plant response rating, Pigweed [6, 12]: 0; Plant response rating, Velvetleaf [7, 10]: 0; Plant response rating, Velvetleaf [7, 12]: 0; Plant response rating, Wheat [8, 10]: 90; Plant response rating, Wheat [8, 12]: 100
Cc1ccc(-c2ccc(Cl)cc2)cc1-c1c(O)cnn(C)c1=O [Compound 46]	50	100	50	0	60	100	40	90	0	0	0	0	0	0	30	50	0	40	20	0	Plant response rating, Foxtail, Giant [3, 13]: 20; Plant response rating, Foxtail, Giant [3, 14]: 50; Plant response rating, Crabgrass, Large [4, 13]: 0; Plant response rating, Crabgrass, Large [4, 14]: 10; Plant response rating, Morningglory [5, 13]: 0; Plant response rating, Morningglory [5, 14]: 0; Plant response rating, Pigweed [6, 13]: 0; Plant response rating, Pigweed [6, 14]: 0; Plant response rating, Velvetleaf [7, 13]: 0; Plant response rating, Velvetleaf [7, 14]: 0; Plant response rating, Wheat [8, 13]: 0; Plant response rating, Wheat [8, 14]: 0
Cc1cc(-c2ccc(Cl)cc2)nn1-c1c(OS(=O)(=O)c2cccc3ccccc23)cnn(C)c1=O [Compound 47]	40	80	10	40	60	90	50	90	0	0	0	0	0	0	10	40	0	20	0	0	Plant response rating, Foxtail, Giant [3, 13]: 10; Plant response rating, Foxtail, Giant [3, 14]: 70; Plant response rating, Crabgrass, Large [4, 13]: 10; Plant response rating, Crabgrass, Large [4, 14]: 10; Plant response rating, Morningglory [5, 13]: 0; Plant response rating, Morningglory [5, 14]: 0; Plant response rating, Pigweed [6, 13]: 0; Plant response rating, Pigweed [6, 14]: 0; Plant response rating, Velvetleaf [7, 13]: 0; Plant response rating, Velvetleaf [7, 14]: 0; Plant response rating, Wheat [8, 13]: 0; Plant response rating, Wheat [8, 14]: 0
Cc1cc(-c2ccc(Cl)cc2)nn1-c1c(OS(=O)(=O)C(C)C)cnn(C)c1=O [Compound 50]	70	100	30	20	60	90	40	90	0	0	0	0	0	0	20	50	0	10	0	0	Plant response rating, Foxtail, Giant [3, 13]: 0; Plant response rating, Foxtail, Giant [3, 14]: 70; Plant response rating, Crabgrass, Large [4, 13]: 0; Plant response rating, Crabgrass, Large [4, 14]: 50; Plant response rating, Morningglory [5, 13]: 0; Plant response rating, Morningglory [5, 14]: 0; Plant response rating, Pigweed [6, 13]: 0; Plant response rating, Pigweed [6, 14]: 0; Plant response rating, Velvetleaf [7, 13]: 0; Plant response rating, Velvetleaf [7, 14]: 0; Plant response rating, Wheat [8, 13]: 0; Plant response rating, Wheat [8, 14]: 0
Cc1cc(-c2ccc(Cl)cc2)nn1-c1c(OS(=O)(=O)c2ccc(Cl)s2)cnn(C)c1=O [Compound 55]	30	80	40	40	70	90	60	80	0	0	0	0	0	0	30	50	0	0	0	0	Plant response rating, Foxtail, Giant [3, 13]: 20; Plant response rating, Foxtail, Giant [3, 14]: 80; Plant response rating, Crabgrass, Large [4, 13]: 10; Plant response rating, Crabgrass, Large [4, 14]: 20; Plant response rating, Morningglory [5, 13]: 0; Plant response rating, Morningglory [5, 14]: 0; Plant response rating, Pigweed [6, 13]: 0; Plant response rating, Pigweed [6, 14]: 0; Plant response rating, Velvetleaf [7, 13]: 0; Plant response rating, Velvetleaf [7, 14]: 0; Plant response rating, Wheat [8, 13]: 0; Plant response rating, Wheat [8, 14]: 0
